In patent publication US20250082763A1, “COMBINATION DRUG FOR TREATING TRIPLE-NEGATIVE BREAST CANCER” (HINOVA PHARMACEUTICALS INC., priority 2022, published 2025):

Key:
Assay type in all cases: cell-based
MFM-223 = assay: Antiproliferation, CellTiter-Glo, 5 days, MFM-223; conditions: Homo sapiens, 120 h, MFM-223, AR+ TNBC
Protocol: (§1) For MDA-MB-453, MFM-223, SUM159PT, MDA-MB-468, and HCC1937, 4,000, 3,000, 1,000, 3,000, and 3,000 cells were plated per well in 96-well microplates (Corning Inc), respectively. Cells were treated with serial dilutions of tested compounds with the maximum working concentration of 10 μM. Cell survival was measured 5 days later using a CellTiter-Glo luminescent cell viability assay kit (Promega Corporation). Luminescence was recorded by FLUOstar Omega microplate reader (BMG Labtech). Half maximal inhibitory concentration (IC50) was determined with GraphPad Prism using baseline correction (by normalizing to dimethyl sulfoxide (DMSO) control)

MDA-MB-453 cells [1] = assay: Combination with PI3K inhibitor Duvelisib, proliferation of MDA-MB-453 cells, Combination Index; conditions: molar ratio to Duvelisib 1:30-1:1.111, 7-10 days
Protocol: (§2) Triple negative breast cancer MDA-MB-453 cells in logarithmic growth stage were inoculated into a 96-well plate at a concentration of 4×10^3 cells/well, and then incubated in an incubator at 37° C., 5% CO2, and saturated humidity for 24 h. To the negative control wells, were added RPMI 1640 cell culture medium containing 10% fetal bovine serum in the same volume as the drug. After cultured for 24 h, to the 96-well plate, were sequentially added AR PROTACs compounds 279, 281, 282, ARV-110 and PI3K inhibitor Duvelisib, respectively.
(§3) After adding the drugs and co-incubating for 7-10 days, 10 μL of CCK-8 was added to each well, and then the plate was further cultured for 2 h. The absorbance value (OD) of each well was measured using a microplate reader at a wavelength of 450 nm. The survival rate was calculated using Prism software, the relative survival rate=(OD value of drug well/OD value of control well)×100%. Alternatively, 100 μL of medium was removed from each well, and then 50 μL of CTG was added. The plate was shaken in the dark for 2 min, allowed to stand for 10 min, and then measured using a microplate reader in Luminescence mode. Prism software was used to calculate the survival rate, the relative survival rate=(the RLU value of drug well/the RLU value of control well)×100%.

MDA-MB-453 cells [2] = assay: Combination with chemotherapeutic drug Paclitaxel, proliferation of MDA-MB-453 cells, Combination Index; conditions: molar ratio to Paclitaxel 20:1-5000:1, 7 days
Protocol: as §2, with “chemotherapeutic drug Paclitaxel,” for “PI3K inhibitor Duvelisib,”
as §3, with “7” for “7-10”

MDA-MB-453 cells [3] = assay: Combination with PI3K inhibitor Idelalisib, proliferation of MDA-MB-453 cells, Combination Index; conditions: molar ratio to Idelalisib 1:270-1:3.333, 7-10 days
Protocol: as §2, with “ARV-110, ARV-766” for “ARV-110”, “Idelalisib,” for “Duvelisib,”
as §3

MDA-MB-453 = assay: Antiproliferation, CellTiter-Glo, 5 days, MDA-MB-453; conditions: Homo sapiens, 120 h, MDA-MB-453, AR+ TNBC
Protocol: as §1

MDA-MB-453 cells [4] = assay: Combination with PI3K inhibitor Alpelisib, proliferation of MDA-MB-453 cells, Combination Index; conditions: molar ratio to Alpelisib 1:27-9:1, 7 days
Protocol: as §2, with “ARV-110, ARV-766” for “ARV-110”, “Alpelisib,” for “Duvelisib,”
as §3, with “addition of” for “adding”, “co-incubation” for “co-incubating”, “7” for “7-10”

HCC1937 = assay: Antiproliferation, CellTiter-Glo, 5 days, HCC1937; conditions: Homo sapiens, 120 h, HCC1937, AR− TNBC
Protocol: as §1

| Structure (SMILES) | IC50 (MFM-223) | effect of the combination with Duvelisib on inhibiting proliferation (CI<1 = synergistic) (MDA-MB-453 cells [1]) | effect of the combination with Paclitaxel on inhibiting proliferation (CI<1 = synergistic) (MDA-MB-453 cells [2]) | effect of the combination with Idelalisib on inhibiting proliferation (CI<1 = synergistic) (MDA-MB-453 cells [3]) | IC50 (MDA-MB-453) | effect of the combination with Alpelisib on inhibiting proliferation (CI<1 = synergistic) (MDA-MB-453 cells [4]) | IC50 (HCC1937) |
| --- | --- | --- | --- | --- | --- | --- | --- |
| N#Cc1ccc(O[C@H]2CC[C@H](NC(=O)c3ccc(N4CCC(CN5CCN(c6cc7c(cc6F)C(=O)N(C6CCC(=O)NC6=O)C7=O)CC5)CC4)nn3)CC2)cc1Cl (some centres unmarked) [ARV-110, reference compound] | 4000 nM | synergistic effect | synergistic effect | synergistic effect | 1400 nM | synergistic effect | > 10000 nM |
| N#Cc1ccc(O[C@H]2CC[C@H](NC(=O)c3cnc(N4CCC(CN5CCC6(CC5)CN(c5ccc7c(c5)C(=O)N(C5CCC(=O)NC5=O)C7=O)C6)CC4)nn3)CC2)cc1Cl (some centres unmarked) [Compound 279] | 460 nM | synergistic effect | synergistic effect | synergistic effect | 140 nM | synergistic effect | > 10000 nM |
